“Also recorded” adds a separate entry of the source. Where no end group is shown, it is not given here. The star is where a group is joined. For = O=C*
Tested on: OVA-sensitized/challenged mice
Assay: OVA allergen-induced airway inflammation mouse model, 28-day protocol, HK-X i.n. before challenges on days 25, 26, 27
Assay type: in vivo, mouse (BALB/c)
Excerpt: The above-described murine model reproduces key features of human asthma. Late-phase allergen-specific pulmonary disease was induced in normal BALB/c mice using ovalbumin (OVA) as allergen. One protocol includes immunization of mice with i.p. OVA on days 1 and 14, and intranasal (i.n.) administration of OVA on days 14, 25, 26. and 27.
In a mouse model of allergen-induced airway inflammation, the role of mast cell in airway eosinophil infiltration, mucus release, and hyper-responsiveness to methacholine was examined.
Materials were used as described above. Mice received an i.p. injection of 0.2 ml (100 ug) of OVA complexed with aluminum potassium sulfate (alum) on day 0 and 14. On days 14, 25, 26, and 27, mice were anesthetized with 0.2 ml i.p. of ketamine (0.44 mg/ml)/xylazine (6.3 mg/ml) in normal saline before receiving an intranasal (i.n.) dose of 100 ug OVA in 0.05 ml normal saline on days 25, 26, and 27. Lung tissue was obtained 24 hours after the last i.n. challenge on day 28. The control group received normal saline with alum i.p. on days 0 and 14 and normal saline without alum i.n. on days 14, 25, 26, and 27. To assess the effect of HK-X inhibition on OVA induced asthma, HK-X (10 ug/ml) was given i.n. 30 minutes before each i.n. challenge on days 25, 26, and 27.
After tying off the left lung at the mainstem bronchus, the right lung was […] three times with 0.4 ml of normal saline. Bronchoalveolar lavage (BAL) fluid cells from a 0.05 ml aliquot of the pooled sample wee counted using a hemocytometer and the remaining fluid centrifuged at 4° C. for 10 minutes at 200 g. After resuspension of the cell pellet in normal saline containing 10% BSA, BAL cell smears were made on glass slides. To stain eosinophils, dried slides were stained with Discombe's diluting fluid (0.05% aqueous eosin and 5% (v/v) acetone in distilled water) for 5-8 minutes, rinsed with water for 0.5 minutes and counterstained with […] for 2 minutes
Following BAL, the trachea and left lung (upper and lower lobes) were obtained and fixed in 10% buffered formalin solution at 20° C. forlS hours. After the tissues were processed and embeded in paraffin, the tissues were cut into 5 μm sections and stained with Discombe's solution and counterstained with methylene blue as described above or stained with Hematoxylin and eosin. The eosinophil number per unit airway area (2200 μm^2) was determined by morphometry as previously described. Airway mucus was identified by a variety of staining methods, i.e., methylene blue, Hematoxylin and eosin, mucicarmine, toluidine blue, alcian blue, and alcian blue/periodic acid Schiff (PAS) reaction. […] The degree of mucus plugging of the airways (0.5-0.8 mm in diameter) also was assessed by morphometry. […]

f-Met-Leu-Phe-Phe (For-MLFF) [Example 9]
Cellular infiltration during asthmatic attack (histopathology) (10 μg HK-X intranasally 30 minutes prior to challenge, FIG. 9): reduces the cellular infiltration | Eosinophil influx into the lung tissue and BAL fluid (OVA sensitized/challenged mice, FIGS. 8A, 9A, 10A): markedly reduced | Airway mucus release / secretion (OVA sensitized/challenged mice, histopathology FIGS. 8A, 9A, 10A, listed as HK-X): prevented airway mucus release; also recorded: blocked the airway mucus release; also recorded: prevents the airway mucus secretion; also recorded: reduces the mucus secretion in airways | Reduction of eosinophil influx into the lung interstitium (morphometric analysis) (p<0.006 compared to OVA without HK-X, FIG. 11): 90%
